Assay results: US20250332162A1 (priority 2022, published 2025)
Read-outs that look alike come from different tables or passages of the source.

Columns and labels:
[1] = Solubility on dilution of 10 mM DMSO stocks; type: physicochemical; conditions: 10 mM stocks in DMSO
Protocol: Antiviral compounds: Favipiravir, Mycophenolate, and Viramidine were prepared as 10 mM stocks in dimethyl sulfoxide (DMSO) and were soluble when diluted in various reaction mixtures and cell culture media. […] Also, combination of Favipiravir with each of the other drugs were tested.

[2] = test system: Flu virus strain A/Puerto Rico/8/1934 (PR8); test: microbe, parasite or virus in culture; type: cell-based; conditions: unidentified influenza virus, PR8, MDCK, MDCK cells
[3] = 48 h, read-out: estimated IC50 when used alone, Example A, PR8 Flu virus 0.01 MOI, 48 hours
[4] = read-out: IC50, inhibition of influenza virus cytopathic activity, drug alone, FIG. 1 experiment, influenza A/PR8 m.o.i. 0.01, pre-treated 1 h, two days
[5] = read-out: IC50, inhibition of influenza virus cytopathic activity, drug alone, FIG. 7 experiment, influenza m.o.i. 0.01, pre-treated 1 h, two days

| SMILES | solubility when diluted in reaction mixtures and cell culture media [1] | IC50 [2, 3] [µM] | IC50 [2, 4] [µM] | IC50 [2, 5] [µM] |
| --- | --- | --- | --- | --- |
| NC(=O)c1nc(F)c[nH]c1=O [Favipiravir, favipiravir] | soluble | 25 | 26.5 | 25.1 |
| COc1c(C)c2c(c(O)c1C/C=C(\C)CCC(=O)O)C(=O)OC2 [Mycophenolate] | soluble | 1.42 | 1.4 | – |
| N=C(N)c1ncn([C@@H]2O[C@H](CO)[C@@H](O)[C@H]2O)n1 [Viramidine, viramidine] | soluble | 94.7 | – | 94.7 |
